Experimental data: patent EP4640206A1, “NISIN FOR INHIBITING BIOFILMS” (SkyLab AG, priority 2024, dated 2025)

How the values were obtained:
[1] = system: multispecies biofilms; test: Follow-up observation of pH of washes of a laboratory model of multispecies biofilms in 10% sucrose; assay type: cell-based; conditions: for Value of pH decrease within 30 min. of measurement (%): compared to the initial value
Method: Example No. 3. Follow-up observation of pH of washes of a laboratory model of multispecies biofilms.
To perform this test, it was necessary to obtain multispecies biofilms of bacteria. A 72-well, round-bottom, polystyrene plate for titration was used as an adhesive surface for growing multispecies biofilms. The inner surface was processed with a round abrasive drill bit, with visual inspection of the procedure. Then the plate was washed and immersed into isopropyl alcohol for 10 min. followed by 3-fold washing in distilled water.
Saliva was collected in the fasting state by spitting into a sterile centrifuge tube. Saliva was used to prepare inoculum with the following composition: 96.5 ml of saliva, 1 ml of 10% sucrose, 3.5 ml of S.mutans suspension 0.8 units of McF.
To obtain biofilms, the prepared inoculum was poured 1 ml into all wells of the prepared plate, after which the wells were covered with a similar plate and sealed with parafilm film. The plate was placed on a shaker pad with variable surface slope placed in a CO2 incubator and incubated overnight (16 hours). The contents of the wells were then extracted with an aspirator by dipping the plastic tip into the center of the well until completely drained. 1 ml of soy-casein broth was added to all wells of the plate with an automatic pipette. The plate was placed into the incubator. The described cycle was repeated for four days.
Biofilm formation was monitored visually by gram staining. After four days, the contents of the wells were extracted with an aspirator. All 6 wells of the first row were filled with 1 ml of deionized water and left for 5 min. Water was extracted with an aspirator; 1 ml of the test drug was added into the wells, in 1 min. the drug was removed, the wells were filled for 1 min. with deionized water, then it was removed. 250 µl of 10% sucrose solution was added to the wells. The formed biofilms were scraped off with a disposable loop (10µl); the suspension of two neighboring wells was combined and transferred to three Eppendorfs. Sample combination allowed increasing the volume of the analyzed suspension sample up to 0.5 ml, which in turn allowed carrying out pH measurements in free volume with the necessary reserve at high density of biofilm culture of microorganisms and optimal time for the sample measurement procedure (20 sec.). After combination of the samples, pH was immediately measured. The measurement time points were 0, 1, 2, 3, 4, 5, 6, 6, 7, 8, 9, 10, 15,20,30 min. The results of pH changes in multispecies dental biofilms in the presence of sucrose under the influence of active ingredients are shown in Figure 3 and Tables 3-4. Table 3. Results of pH measurements of mechanically disrupted multispecies biofilms in 10% sucrose solution, follow-up (10% sucrose solution pH-6.98).

[2] = system: Streptococcus mutans No. 22081; test: Effect of nisin concentrations on growth and biomass accumulation of S.mutans, serial two-fold dilutions micromethod, 16-hour follow-up (optical density A565 nm); assay type: cell-based
Description: Example No. 1. Determination of the effect of different concentrations of nisin on growth and biomass accumulation of S.mutans No. 22081 in 16-hour follow-up.
Aqueous solution of nisin in different concentrations was used as the working solution.
To prepare the reaction mixture containing the tested component, a method of serial twofold dilutions in heart-brain broth (Series 201181, valid till 012025., CONDALAB, Spain), a micromethod (flat-bottom 96-well plate), for which serial dilutions of the investigated component were prepared in liquid nutrient medium. When setting the methods of serial dilutions, control of culture growth on medium without the active component was carried out, and the quality of medium and investigated preparations was controlled using reference strains of the species. The purity of the microorganism suspension used for inoculation was also controlled by sowing on non-selective media.
The results of the micromethod formulation to evaluate the effect of drugs on the growth and development of the culture of Streptococcus mutans No. 22081 were recorded spectrophotometrically in an automatic kinetic format (intermittent shaking, T-37°C, measurement of optical density A565 nm every hour in automatic mode).

[3] = heart-brain broth, 37°C, 16-hour follow-up

Compound: NC(N)=O [Urea, reference compound]
- pH of mechanically disrupted multispecies biofilms ([1]; Urea 0.5%, 0 min): 6.4±0.006
- pH of mechanically disrupted multispecies biofilms ([1]; Urea 0.5%, 1 min): 6.4±0.006
- pH change (in brackets), multispecies biofilms ([1]; Urea 0.5%, 1 min vs previous time point): 0
- pH of mechanically disrupted multispecies biofilms ([1]; Urea 0.5%, 2 min): 6.4±0.006
- pH change (in brackets), multispecies biofilms ([1]; Urea 0.5%, 2 min vs previous time point): 0
- pH of mechanically disrupted multispecies biofilms ([1]; Urea 0.5%, 3 min): 6.4±0.006
- pH change (in brackets), multispecies biofilms ([1]; Urea 0.5%, 3 min vs previous time point): 0
- pH of mechanically disrupted multispecies biofilms ([1]; Urea 0.5%, 4 min): 6.41±0.006
- pH change (in brackets), multispecies biofilms ([1]; Urea 0.5%, 4 min vs previous time point): +0.01
- pH of mechanically disrupted multispecies biofilms ([1]; Urea 0.5%, 5 min): 6.42±0.006
- pH change (in brackets), multispecies biofilms ([1]; Urea 0.5%, 5 min vs previous time point): +0.01
- pH of mechanically disrupted multispecies biofilms ([1]; Urea 0.5%, 6 min): 6.44±0.006
- pH change (in brackets), multispecies biofilms ([1]; Urea 0.5%, 6 min vs previous time point): +0.02
- pH of mechanically disrupted multispecies biofilms ([1]; Urea 0.5%, 7 min): 6.45±0.006
- pH change (in brackets), multispecies biofilms ([1]; Urea 0.5%, 7 min vs previous time point): +0.01
- pH of mechanically disrupted multispecies biofilms ([1]; Urea 0.5%, 8 min): 6.43±0.02
- pH change (in brackets), multispecies biofilms ([1]; Urea 0.5%, 8 min vs previous time point): -0.02
- pH of mechanically disrupted multispecies biofilms ([1]; Urea 0.5%, 9 min): 6.43±0.0
- pH change (in brackets), multispecies biofilms ([1]; Urea 0.5%, 9 min vs previous time point): 0
- pH of mechanically disrupted multispecies biofilms ([1]; Urea 0.5%, 10 min): 6.42±0.0
- pH change (in brackets), multispecies biofilms ([1]; Urea 0.5%, 10 min vs previous time point): -0.01
- pH of mechanically disrupted multispecies biofilms ([1]; Urea 0.5%, 15 min): 6.25±0.01
- pH change (in brackets), multispecies biofilms ([1]; Urea 0.5%, 15 min vs previous time point): -0.17
- pH of mechanically disrupted multispecies biofilms ([1]; Urea 0.5%, 20 min): 6.18±0.02
- pH change (in brackets), multispecies biofilms ([1]; Urea 0.5%, 20 min vs previous time point): -0.07
- pH of mechanically disrupted multispecies biofilms ([1]; Urea 0.5%, 30 min): 5.97±0.02
- pH change (in brackets), multispecies biofilms ([1]; Urea 0.5%, 30 min vs previous time point): -0.21
- Value of pH decrease within 30 min. of measurement (%) ([1]; Urea 0.5%): -6.7%

Compound: Nisin
- effect on growth and biomass accumulation ([2]; concentrations lower than 0.0039%): no significant effect
- concentrations that significantly inhibited growth and biomass accumulation, but had no bactericidal effect [2, 3]: 0.0039-0.0078%
- final concentration with pronounced antibacterial effect [2, 3]: 0.0078-0.125%
- minimum-suppressive concentration [2, 3]: 0.0039%
- antibacterial and inhibitory activity against S.mutans ([2]; nisin solution in concentration of 0.008% and below): not able to have antibacterial and inhibitory activity
- pH of mechanically disrupted multispecies biofilms ([1]; Nisin 0.004%, 0 min): 6.32±0.006
- pH of mechanically disrupted multispecies biofilms ([1]; Nisin 0.004%, 1 min): 6.3±0.006
- pH change (in brackets), multispecies biofilms ([1]; Nisin 0.004%, 1 min vs previous time point): -0.02
- pH of mechanically disrupted multispecies biofilms ([1]; Nisin 0.004%, 2 min): 6.28±0.0
- pH change (in brackets), multispecies biofilms ([1]; Nisin 0.004%, 2 min vs previous time point): -0.02
- pH of mechanically disrupted multispecies biofilms ([1]; Nisin 0.004%, 3 min): 6.26±0.006
- pH change (in brackets), multispecies biofilms ([1]; Nisin 0.004%, 3 min vs previous time point): -0.02
- pH of mechanically disrupted multispecies biofilms ([1]; Nisin 0.004%, 4 min): 6.24±0.01
- pH change (in brackets), multispecies biofilms ([1]; Nisin 0.004%, 4 min vs previous time point): -0.02
- pH of mechanically disrupted multispecies biofilms ([1]; Nisin 0.004%, 5 min): 6.22±0.006
- pH change (in brackets), multispecies biofilms ([1]; Nisin 0.004%, 5 min vs previous time point): -0.02
- pH of mechanically disrupted multispecies biofilms ([1]; Nisin 0.004%, 6 min): 6.2±0.0
- pH change (in brackets), multispecies biofilms ([1]; Nisin 0.004%, 6 min vs previous time point): -0.02
- pH of mechanically disrupted multispecies biofilms ([1]; Nisin 0.004%, 7 min): 6.2±0.006
- pH change (in brackets), multispecies biofilms ([1]; Nisin 0.004%, 7 min vs previous time point): 0
- pH of mechanically disrupted multispecies biofilms ([1]; Nisin 0.004%, 8 min): 6.19±0.0
- pH change (in brackets), multispecies biofilms ([1]; Nisin 0.004%, 8 min vs previous time point): -0.01
- pH of mechanically disrupted multispecies biofilms ([1]; Nisin 0.004%, 9 min): 6.19±0.006
- pH change (in brackets), multispecies biofilms ([1]; Nisin 0.004%, 9 min vs previous time point): 0
- pH of mechanically disrupted multispecies biofilms ([1]; Nisin 0.004%, 10 min): 6.18±0.0
- pH change (in brackets), multispecies biofilms ([1]; Nisin 0.004%, 10 min vs previous time point): -0.01
- pH of mechanically disrupted multispecies biofilms ([1]; Nisin 0.004%, 15 min): 6.12±0.006
- pH change (in brackets), multispecies biofilms ([1]; Nisin 0.004%, 15 min vs previous time point): -0.06
- pH of mechanically disrupted multispecies biofilms ([1]; Nisin 0.004%, 20 min): 6.11±0.0
- pH change (in brackets), multispecies biofilms ([1]; Nisin 0.004%, 20 min vs previous time point): -0.01
- pH of mechanically disrupted multispecies biofilms ([1]; Nisin 0.004%, 30 min): 6.07±0.006
- pH change (in brackets), multispecies biofilms ([1]; Nisin 0.004%, 30 min vs previous time point): -0.04
- Value of pH decrease within 30 min. of measurement (%) ([1]; Nisin 0.004%): -3.95%
- Value of pH decrease within 30 min. of measurement (%) ([1]; Nisin 0.008%): -8.7%
- pH of mechanically disrupted multispecies biofilms ([1]; Nisin 0,008%, 0 min): 6.54±0.006
- pH of mechanically disrupted multispecies biofilms ([1]; Nisin 0,008%, 1 min): 6.45±0.006
- pH change (in brackets), multispecies biofilms ([1]; Nisin 0,008%, 1 min vs previous time point): -0.09
- pH of mechanically disrupted multispecies biofilms ([1]; Nisin 0,008%, 2 min): 6.4±0.006
- pH change (in brackets), multispecies biofilms ([1]; Nisin 0,008%, 2 min vs previous time point): -0.05
- pH of mechanically disrupted multispecies biofilms ([1]; Nisin 0,008%, 3 min): 6.35±0.006
- pH change (in brackets), multispecies biofilms ([1]; Nisin 0,008%, 3 min vs previous time point): -0.05
- pH of mechanically disrupted multispecies biofilms ([1]; Nisin 0,008%, 4 min): 6.3±0.006
- pH change (in brackets), multispecies biofilms ([1]; Nisin 0,008%, 4 min vs previous time point): -0.05
- pH of mechanically disrupted multispecies biofilms ([1]; Nisin 0,008%, 5 min): 6.22±0.01
- pH change (in brackets), multispecies biofilms ([1]; Nisin 0,008%, 5 min vs previous time point): -0.08
- pH of mechanically disrupted multispecies biofilms ([1]; Nisin 0,008%, 6 min): 6.16±0.006
- pH change (in brackets), multispecies biofilms ([1]; Nisin 0,008%, 6 min vs previous time point): -0.06
- pH of mechanically disrupted multispecies biofilms ([1]; Nisin 0,008%, 7 min): 6.1±0.01
- pH change (in brackets), multispecies biofilms ([1]; Nisin 0,008%, 7 min vs previous time point): -0.06
- pH of mechanically disrupted multispecies biofilms ([1]; Nisin 0,008%, 8 min): 6.0±0.02
- pH change (in brackets), multispecies biofilms ([1]; Nisin 0,008%, 8 min vs previous time point): -0.1
- pH of mechanically disrupted multispecies biofilms ([1]; Nisin 0,008%, 9 min): 5.99±0.006
- pH change (in brackets), multispecies biofilms ([1]; Nisin 0,008%, 9 min vs previous time point): -0.01
- pH of mechanically disrupted multispecies biofilms ([1]; Nisin 0,008%, 10 min): 5.98±0.0
- pH change (in brackets), multispecies biofilms ([1]; Nisin 0,008%, 10 min vs previous time point): -0.01
- pH of mechanically disrupted multispecies biofilms ([1]; Nisin 0,008%, 15 min): 5.97±0.006
- pH change (in brackets), multispecies biofilms ([1]; Nisin 0,008%, 15 min vs previous time point): -0.01
- pH of mechanically disrupted multispecies biofilms ([1]; Nisin 0,008%, 20 min): 5.96±0.006
- pH change (in brackets), multispecies biofilms ([1]; Nisin 0,008%, 20 min vs previous time point): -0.01
- pH of mechanically disrupted multispecies biofilms ([1]; Nisin 0,008%, 30 min): 5.97±0.006
- pH change (in brackets), multispecies biofilms ([1]; Nisin 0,008%, 30 min vs previous time point): +0.01
- effect on the value of acidity in the multispecies biofilm affected by sucrose ([1]; nisin 0.004 and 0.008%): stabilizing effect
